Measured values: PubChem BioAssay AID2253 (Southern Research Specialized Biocontainment Screening …, 2010)

Tested on: THP-1 viability, CellTiter-Glo luminescence, 72 h
Experiment: THP-1 cell cytotoxicity, dose response, cytotoxicity control for Salmonella PhoP regulon inhibitors, S. typhimurium screen hits (AID 2253)

Row | SMILES | EC50
1 | CCN1/C(=C/C=C/c2sc3ccccc3[n+]2CC)Sc2ccccc21 | 0.43 µM
2 | Cc1c(C(=O)Nc2cccc(Cl)c2)c2ccccn2c1CCc1ccncc1 | 24.7 µM
3 | Clc1ccc(CN2CCC(c3nc4ccc(Cl)cc4[nH]3)CC2)cc1 | 29.4 µM
4 | Nc1nonc1C(=O)NCCN=Cc1cc(Cc2ccccc2)cc(Br)c1O | 37.8 µM
5 | C=CCNc1ncnc2c1[nH]c1ccc(C)cc12 | 25.8 µM
6 | CC(C(=O)Nc1cc([N+](=O)[O-])ccc1Cl)N1CCN(c2ccccc2O)CC1 (centres undefined) | 25.6 µM
7 | CC(=O)NC(c1ccc2ccccc2c1)c1ccc2cccnc2c1O (centres undefined) | 0.24 µM
8 | Clc1ccc(Cn2ncc3c(NCc4ccco4)ncnc32)c(Cl)c1 | 6.81 µM
9 | CNC[C@H](CC1CCCCC1)NC[C@H](Cc1ccccc1)NCCC12CC3CC(CC(C3)C1)C2 | 3.28 µM
10 | O=C(N/N=C/c1cc([N+](=O)[O-])ccc1O)c1ccncc1 | 15.1 µM
11 | CN1CCN(C(c2ccccn2)c2cc(Cl)c3cccnc3c2O)CC1 (centres undefined) | 9.2 µM
12 | Cc1cccc(Sc2c([N+](=O)[O-])ncn2C)c1 | 32 µM
13 | OC(CNCCc1ccccc1)COc1ccc(OCC(O)CNCCc2ccccc2)cc1 (centres undefined) | 6 µM
14 | CN(C)c1ccc(O)c2c1CC1CC3[C@@H](N(C)C)C(=O)C(C(N)=O)=C(O)[C@]3(O)C(=O)C1=C2O (some centres undefined) | 37 µM
15 | NNC(=S)Nc1ccc(Cl)cc1 | 48.1 µM
16 | Nc1c(C(=O)NCCc2ccc(Cl)cc2)sc2ccc(S(=O)(=O)N3CCCCC3)cc12 | 31.5 µM
17 | NC1=NC[C@H](c2ccccc2)N1CCCCC1CCCCC1 | 5.06 µM
18 | CC1(C)CC(=O)C2=C(C1)OC1=C(C(=O)CC(C)(C)C1)C2c1ccc(O)cc1O | 5.36 µM
19 | N=c1n(CC(=O)c2ccc(Br)s2)c2ccccc2n1Cc1ccccc1 | 7.56 µM
20 | CNC[C@H](Cc1ccccc1)NC[C@@H](Cc1cccc2ccccc12)NCCc1ccc(C)cc1 | 4.75 µM
21 | COc1cccc(-c2nnc3sc(-c4ccc(C)cc4)nn23)c1 | 44.3 µM
22 | COc1ccc(-c2cn[nH]c2-c2ccc(OCc3ccc([N+](=O)[O-])cc3)cc2O)cc1 | 15.1 µM
23 | Oc1ccc(N2CCN(Cc3ccc(OCCCN4CCCCC4)cc3)CC2)cc1 | 29.5 µM

Row | SMILES | EC50
24 | O=C(NC1CCCCC1)C(c1ccncc1)N(Cc1ccccc1)C(=O)c1ccc(-c2ccccc2)[nH]1 (centres undefined) | 22.5 µM
25 | NC(N)=N/N=C/c1ccc(OCc2ccc(Cl)cc2)cc1 | 2.91 µM
26 | Oc1cccc(/C=N/NC(=S)Nc2cccnc2)c1O | 4.11 µM
27 | O=[N+]([O-])c1cc(Cl)c(O)c2ncccc12 | 15 µM
28 | O=S1(=O)Nc2c(ccc3cccnc23)-c2ccccc21 | 0.69 µM
29 | COc1ccc(OC)c(/C=N/NC(=O)c2cc3c(OC)c(OC)ccc3[nH]2)c1 | 43.8 µM
30 | Cc1cc2nc3ccc(=[N+](C)C)cc-3sc2cc1N | 1 µM
31 | Cc1ccc(C)c(/C=C/C(=O)c2ccccc(=O)c2O)c1 | 9.58 µM
32 | Cc1ccccc1Nc1cc(C)c2c(O)cccc2n1 | 7.56 µM
33 | CCCCCC(CC(=O)NO)C(=O)NC(C(=O)N1CCCC1CO)C(C)C (centres undefined) | 36.2 µM
34 | CCCCCCCOC(=O)C[N+](C)(C)CCOC1CC2CCC1(C)C2(C)C (centres undefined) | 2.07 µM
35 | COc1ccc(Nc2cc(C)c3c(O)cccc3n2)cc1 | 15 µM
36 | Cc1ccc([N+](=O)[O-])cc1-c1ccc(/C=C(\C#N)c2[nH]nc(N)c2C#N)o1 | 5.93 µM
37 | O=C(N/N=C/c1cc(Cl)ccc1O)c1ccncc1 | 5.12 µM
38 | Cc1ccc(C(C)C)c(OCC(=O)N2CCN(Cc3nc4cc([N+](=O)[O-])ccc4n3C)CC2)c1 | 25.9 µM
39 | CCc1ccc(Nc2nc(N)nc(CSc3nc4ccccc4s3)n2)cc1 | 33.8 µM
40 | CCCCCCCSc1cc(OC)c(CCN(C)C)cc1OC | 14.1 µM
41 | Clc1ccc(-c2c[n+](Cc3ccc(Cl)cc3Cl)c3n2CCCCC3)cc1 | 3.61 µM
42 | C#CC(=O)N(c1cc(OC)ccc1OC)C(C(=O)NC1CCCC1)c1cccs1 (centres undefined) | 1.42 µM
43 | N#CC1=C(N)Oc2c(O)cc3ccccc3c2C1c1ccsc1 (centres undefined) | 21.3 µM
44 | Oc1ccc(CNc2ccccc2F)c2cccnc12 | 4.93 µM
45 | COc1cc(C(=O)Oc2c(CN3CCOCC3)cc(Cl)c3cccnc23)cc(OC)c1OC | 4.46 µM
46 | O=S(=O)(Nc1ccc2ccccc2c1)c1ccccc1 | 47.2 µM

Row | SMILES | EC50
47 | S=C(NCc1ccncc1)Nc1ccc(Cl)c(Cl)c1 | 46.2 µM
48 | Cc1ccc(C=Nc2ccccc2C(N)=O)s1 | 10.8 µM
49 | Oc1ccc(/C=N/Nc2ncc(Br)cn2)c(O)c1 | 3.1 µM
50 | CN(C)c1ccc([C@@H]2[C@@H]([N+](=O)[O-])[C@H]3C=Cc4ccccc4N3[C@H]2C(=O)c2ccc(Cl)cc2)cc1 | 20.6 µM
51 | Cc1ccc(C=Nc2ccccc2C(N)=O)cc1 | 8.83 µM
52 | Oc1[nH]c(=S)sc1/C=C1\C(c2ccccc2)=Nc2ccccc21 | 26 µM
53 | CC[C@H]1OC(=O)C[C@@H](O)[C@H](C)[C@@H](O[C@@H]2O[C@H](C)C[C@H](N(C)C)[C@H]2O)[C@@H](CC=O)C[C@@H](C)C(=O)C=C[C@]2(C)O[C@H]2[C@@H]1C | 11.9 µM
54 | CN1CCN(C(c2ccc(Cl)cc2)c2cc(Cl)c3cccnc3c2O)CC1 (centres undefined) | 1.66 µM
55 | C/C(=N\NC(=S)Nc1ccc(F)cc1)c1ccc2c(c1)OCCO2 | 10.5 µM
56 | CCn1c(SCC(=O)Nc2ccc3c(c2)oc2ccccc23)nnc1-c1ccc(N)cc1 | 29.9 µM
57 | CC1=NN(c2ccc(Cl)cc2)C(=O)C1C(c1cccc(O)c1)c1c(C)[nH]n(-c2ccc(Cl)cc2)c1=O (centres undefined) | 35.5 µM
58 | O=C(Nc1ccccc1)Nc1ncc([N+](=O)[O-])s1 | 15.8 µM
59 | CCCCCCCCCCCCCCCC[n+]1cccc(C(=O)N(CC)CC)c1 | 0.64 µM
60 | Cc1cc(C)c2nc(NNC(=O)c3ccc(S(=O)(=O)N4CCCCC4)cc3)sc2c1 | 4.69 µM
61 | COc1ccc2c(c1)[nH]c1c(N3CCN(Cc4ccc5c(c4)OCO5)CC3)ncnc12 | 6.85 µM
62 | Cc1conc1NC(c1cccs1)c1ccc2cccnc2c1O (centres undefined) | 5.5 µM
63 | Cc1c(C)n(Cc2ccccc2)c2ncnc(NN)c12 | 23.4 µM
64 | CCN1/C(=C/C(C)=C/c2sc3ccccc3[n+]2CC)Sc2ccccc21 | 13.6 µM
65 | Cc1cc(/C=N/NC(=O)c2cccc([N+](=O)[O-])c2)c(C)n1-c1ccc(Cl)cc1Cl | 43.9 µM
66 | COC12C(COC(N)=O)C3=C(C(=O)C(C)=C(N)C3=O)N1CC1C2N1C (centres undefined) | 9.05 µM
67 | Cc1ccc2[nH]c3c(NCc4ccco4)ncnc3c2c1 | 34.7 µM
68 | O=C(N/N=C\c1cccc([N+](=O)[O-])c1O)C1COc2ccccc2O1 (centres undefined) | 21.5 µM
69 | COc1ccc(/C=C/C(=O)NC(=S)NNC(=O)c2cnccn2)cc1 | 2.02 µM

Row | SMILES | EC50
70 | Cc1ccc(Nc2cc(C)c3ccc(O)cc3n2)cc1C | 17 µM
71 | Cc1cccc(NC(=S)NC(NC(=O)c2ccco2)C(Cl)(Cl)Cl)c1 (centres undefined) | 21.7 µM
72 | N=c1c2c(n(Cc3ccc(Br)cc3)c3c1CCC3)CCCC2 | 3.88 µM
73 | c1cnc2c(c1)ccc1cccnc12 | 3.8 µM
74 | Cc1nnc(N/N=C/c2ccccn2)[nH]c1=O | 0.81 µM
75 | COc1cccc(Nc2nc(NCC3CCCO3)c3ccccc3n2)c1 (centres undefined) | 2.88 µM
76 | O=C(CCN1CCc2ccccc2C(c2ccccc2)C1)c1ccc2c(c1)OCCO2 (centres undefined) | 18 µM
77 | CCCCCCCCCCOC(=O)C[N+](C)(C)C/C=C(/C)Cl | 8.56 µM
78 | Cc1cccc(Nc2nc(NCc3ccco3)c3ccccc3n2)c1 | 5.29 µM
79 | Cc1ccc(Nc2nc(NCc3ccco3)c3ccccc3n2)cc1 | 4.34 µM
80 | CCCCCCCCCCOC(=O)Cn1c(COc2ccc(Cl)cc2)[n+](C)c2ccccc21 | 2.05 µM
81 | Oc1c(Cl)cc(Cl)c(Cl)c1Cc1c(O)c(Cl)cc(Cl)c1Cl | 14.7 µM
82 | O=C(Nc1nnc(-c2cccs2)o1)c1cccc(Oc2ccccc2)c1 | 19.6 µM
83 | COc1ccccc1-c1cc(C(=O)Nc2cc(C)nn2-c2ccccc2)no1 | 25.6 µM
84 | Cc1ccc(C(c2cc(Cl)c3cccnc3c2O)N2CCN(C)CC2)cc1 (centres undefined) | 1.89 µM
85 | O=C(N/N=C/c1cc(Cl)ccc1O)c1cccnc1 | 2.08 µM
86 | NC1=NC[C@@H](Cc2ccc(O)cc2)N1CCCCC1CCCCC1 | 5.45 µM
87 | Cc1ccc2nc(NNC(=O)c3ccc(S(=O)(=O)N4CCc5ccccc5C4)cc3)sc2c1 | 1.83 µM
88 | O=C1c2ccccc2C2=Nc3ccccc3SC(c3cccc(F)c3)C12 (centres undefined) | 8.95 µM
89 | Oc1ccccc1CN1CCCN(Cc2ccccc2O)C1 | 23.8 µM
90 | CC(=O)c1ccc(NC(=O)Nc2cccc(Cl)c2)cc1 | 20.1 µM
91 | Oc1cccc(Nc2nc(NCC3CCCO3)c3ccccc3n2)c1 (centres undefined) | 2.26 µM
92 | CN(C)C=NC(=O)c1[nH]c2ccc(Cl)cc2c1-c1ccccc1 | 13.6 µM

Row | SMILES | EC50
93 | CCCCCN=C(N)N/N=C/c1c[nH]c2ccc(OC)cc12 | 1.58 µM
94 | COc1ccc(OCc2n(CC(=O)OC3CC(C)CCC3C(C)C)c3ccccc3[n+]2C)cc1 (centres undefined) | 1.6 µM
95 | c1ccc(CNc2nc(N3CCN(Cc4ccccc4)CC3)nc3ccccc23)cc1 | 21.6 µM
96 | Cc1cc(C(=O)N/N=C/c2ccc(O)c(O)c2O)c(C)n1-c1ccccc1 | 4.48 µM
97 | Cc1nc(N)nc(N)c1/C=C/C(C)(C)c1ccc(Cl)cc1 | < 0.1 µM
98 | N#C/C(=C\c1ccc(F)c(F)c1)C(=O)NC1CCCCC1 | 46.6 µM
99 | Oc1cccc(Nc2c3ccccc3nc3ccccc23)c1 | 12 µM
100 | Oc1cccc2ccc[n+](CC(O)Cn3c4ccccc4c4ccccc43)c12 (centres undefined) | 11.1 µM
101 | COc1ccc(C(C[N+](=O)[O-])C2(c3ccc(OC)c(OC)c3)C(=O)c3ccccc3C2=O)cc1 (centres undefined) | 12.5 µM
102 | CCCCCCCNC(=O)C1(CC2CC(c3ccc(Cl)cc3)=NO2)CCNCC1 (centres undefined) | 5.66 µM
103 | CCn1c(SCc2nc3scc(-c4ccccc4)c3c(=O)[nH]2)nnc1-c1cccs1 | 46.6 µM
104 | COc1ccc2c(c1)nc(N)n2Cc1ccccc1 | 46.3 µM
105 | CCCc1nc2c(=O)n(C)c(=O)nc-2n(C)n1 | 2.36 µM
106 | COc1ccc(C(=O)N/N=C/c2sc3ccccc3c2O)cc1 | 3.13 µM
107 | O=C(NNc1nc(-c2ccccc2)cs1)c1ccccc1 | 26.1 µM
108 | O=C(CSc1nc(Nc2ccccc2)nc(N2CCOCC2)n1)Nc1ccc([N+](=O)[O-])cc1 | 37.1 µM
109 | CCNC(=S)NNC(=O)c1ccccn1 | 25.5 µM
110 | Cc1nc([N+](=O)[O-])c(Br)n1CC(=O)c1ccccc1 | 17.7 µM
111 | O=C(c1ccc(CSc2nc3ccncc3[nH]2)cc1)N1CCN(c2cccc(Cl)c2)CC1 | 15.3 µM
112 | CC(C)c1ccc(C2C3CSCC=C3C(C#N)=C(N)C2(C#N)C#N)cc1 (centres undefined) | 39.7 µM
113 | O=C(Nc1nc2cc3c(cc2s1)OCO3)C1=COCCO1 | 6.67 µM
114 | O=C(CSCc1ccccc1)N/N=C/c1ccccc1OCc1ccccc1 | 46.6 µM
